Data published in BigSolDB 2.1.

C=CC(=O)Nc1cc(Nc2nccc(-c3cn(C)c4ccccc34)n2)c(OC)cc1N(C)CCN(C)C
Conditions | solubility (mole fraction)
in PEG-400, 298.2 K | 0.00214
in PEG-400, 303.2 K | 0.00307
in PEG-400, 308.2 K | 0.00421
in PEG-400, 313.2 K | 0.00583
in PEG-400, 318.2 K | 0.00733

solubility (mole fraction)
Conditions | in dichloromethane | in ethanol | in ethyl acetate | in isopropyl myristate | in propylene glycol | in transcutol | in water
298.2 K | 0.000939 | 0.000472 | 0.00129 | 0.000794 | 0.000766 | 0.00144 | 1.85e-05
303.2 K | 0.0014 | 0.000703 | 0.00174 | 0.00122 | 0.00106 | 0.0022 | 2.24e-05
308.2 K | 0.00196 | 0.000989 | 0.00241 | 0.00186 | 0.00143 | 0.00337 | 2.72e-05
313.2 K | 0.0028 | 0.00131 | 0.0031 | 0.00263 | 0.00206 | 0.0046 | 3.18e-05
318.2 K | 0.00366 | 0.00176 | 0.00398 | 0.00344 | 0.00265 | 0.00638 | 3.69e-05
